Test results published in ChEMBL document CHEMBL1201862, “PubChem BioAssay data set” (2004).
Active and inactive are the calls of the source.

What was measured:
[1] = biological target: DNA damage-inducible transcript 3 protein (Mus musculus, UniProt P35639); type: functional, Cricetulus griseus
Streptokinase A = biological target: T1, Streptokinase A (Streptococcus pyogenes serotype M1, UniProt P10520); assay: viability-normalized secreted streptokinase activity reduction – plasminogen activation absorbance, OD405, dose response (AID 1914); type: functional, Streptococcus pyogenes M1 GAS;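 further: secreted streptokinase activity via plasminogen activation per viability signal from cell pellet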
T1 sequence (P10520 whole entry): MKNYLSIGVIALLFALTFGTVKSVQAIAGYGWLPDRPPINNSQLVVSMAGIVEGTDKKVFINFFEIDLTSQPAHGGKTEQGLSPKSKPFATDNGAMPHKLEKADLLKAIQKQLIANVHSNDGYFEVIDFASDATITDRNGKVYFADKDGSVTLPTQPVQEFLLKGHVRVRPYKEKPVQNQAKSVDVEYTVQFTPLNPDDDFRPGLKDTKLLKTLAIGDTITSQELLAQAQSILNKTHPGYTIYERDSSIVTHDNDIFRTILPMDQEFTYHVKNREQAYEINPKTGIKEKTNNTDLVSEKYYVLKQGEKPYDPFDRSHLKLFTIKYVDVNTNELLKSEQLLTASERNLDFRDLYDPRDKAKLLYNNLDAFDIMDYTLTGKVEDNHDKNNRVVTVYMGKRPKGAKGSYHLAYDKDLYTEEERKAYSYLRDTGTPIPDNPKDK

[2] = toxicity toward HepG2 liver cells – cell-based, plate reader, cherry-pick, antagonist series, cytotoxicity control, dose response (AID 743416); type: functional
Streptococcus = assay: GAS UMAA2166 growth inhibition – luminescence, BacTiterGlo, counter-screen for streptokinase expression inhibitor project, dose response (AID 1915); type: functional, organism-based;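 further: potency for reduction of bacterial viability or growth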
[3] = A549 cell cytotoxicity, dose response, cytotoxicity control, plate reader, cherry-pick, antagonist series (AID 743412); type: functional, cell-based
[4] = blockers of bursicon-stimulated LGR2 cAMP reporter – cell-based, HEK293, CRE-luciferase reporter, cherry pick, set 2, dose response (AID 743343); type: functional;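 further: transfected cells were stimulated with diluted bursicon conditioned medium after compound addition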
[5] = biological target: T2, Type-1 angiotensin II receptor (Homo sapiens, UniProt P30556); assay: agonist activity at AGTR1 – cell-based, uHTS hits, selectivity assay for APJ receptor agonist project, dose response (AID 488865); type: functional;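 further: beta-arrestin recruitment to AT1 measured by enzyme fragment complementation luminescence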
T2 sequence (P30556 whole entry): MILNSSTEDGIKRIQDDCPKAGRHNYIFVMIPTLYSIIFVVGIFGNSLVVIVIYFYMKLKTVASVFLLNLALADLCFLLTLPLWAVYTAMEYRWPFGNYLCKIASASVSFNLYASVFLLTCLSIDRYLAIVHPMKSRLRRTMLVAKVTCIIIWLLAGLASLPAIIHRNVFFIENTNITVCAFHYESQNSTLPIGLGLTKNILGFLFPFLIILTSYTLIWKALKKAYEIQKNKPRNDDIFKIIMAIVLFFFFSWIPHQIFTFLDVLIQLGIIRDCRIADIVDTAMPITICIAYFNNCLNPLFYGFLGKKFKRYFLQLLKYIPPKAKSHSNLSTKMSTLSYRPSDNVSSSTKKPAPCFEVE

[6] = viability loss in HEK293 cells – cell-based, plate reader, cherry-picked samples, cytotoxicity control, dose response (AID 743446); type: functional
[7] = test system: Streptococcus sp. 'group A'; assay: Streptococcus pyogenes SK(-)GAS viability under kanamycin – luminescence, BacTiterGlo, confirmation, counter-screen for streptokinase expression inhibitor project, dose response (AID 1900); type: functional, organism-based
[8] = blockade of melanocortin 4 receptor signaling – cell-based, plate reader, cherry pick, counter-screen for LGR2 antagonist project, dose response (AID 743444); type: functional;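 further: transfected HEK 293 cells stimulated with alpha-MSH peptide; potency of inhibitors of the alpha-MSH evoked signal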
INS1 = assay: INS-1E survival protection against cytokine death – cell-based, luminescence, retest, dose response (AID 449756); type: functional; details: Rattus norvegicus;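 further: cell death triggered by IL-1 beta plus TNF-alpha plus IFN-gamma mixture; protective hits raise ATP signal compared with cytokine alone wells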
T-cell = assay: loss of vesicle association with mouse CD8+ T cells – mouse 2C CD8+ T cells, flow cytometry, dose response (AID 485284); type: functional
Cannabinoid receptor 2 [9] = biological target: T3, Cannabinoid receptor 2 (Homo sapiens, UniProt P34972); assay: SAR analysis of antagonists of the Cannabinoid Receptor 2 using an Image-Based Assay - Set 2. [Related pubchem assays (depositor defined):AID1961, AID1965]; type: functional
T3 sequence (P34972 whole entry): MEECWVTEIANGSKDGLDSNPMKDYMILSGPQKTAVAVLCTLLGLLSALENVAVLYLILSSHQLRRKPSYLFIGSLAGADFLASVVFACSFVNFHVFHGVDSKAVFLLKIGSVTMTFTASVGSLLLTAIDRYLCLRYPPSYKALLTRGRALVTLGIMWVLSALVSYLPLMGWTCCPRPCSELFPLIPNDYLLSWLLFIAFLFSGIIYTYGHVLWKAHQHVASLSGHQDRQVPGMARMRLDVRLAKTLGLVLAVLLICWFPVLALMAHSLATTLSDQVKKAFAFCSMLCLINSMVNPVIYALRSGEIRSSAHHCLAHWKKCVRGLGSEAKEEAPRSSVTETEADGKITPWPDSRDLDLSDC

[10] = biological target: T4, G-protein coupled receptor 35 (Homo sapiens, UniProt Q9HC97); assay: SAR analysis of Antagonists of the GPR35 Receptor using an Image-Based Assay - Set 4. [Related pubchem assays (depositor defined):[…]]; type: functional
T4 sequence (Q9HC97 whole entry): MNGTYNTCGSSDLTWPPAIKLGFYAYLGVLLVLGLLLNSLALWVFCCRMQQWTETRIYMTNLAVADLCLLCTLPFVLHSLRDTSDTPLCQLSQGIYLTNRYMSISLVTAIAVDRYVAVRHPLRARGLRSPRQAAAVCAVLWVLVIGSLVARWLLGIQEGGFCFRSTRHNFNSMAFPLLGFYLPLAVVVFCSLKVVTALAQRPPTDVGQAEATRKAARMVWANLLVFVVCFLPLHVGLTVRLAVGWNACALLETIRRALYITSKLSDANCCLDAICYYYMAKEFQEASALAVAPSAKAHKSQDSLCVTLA

[11] = biological target: G-protein coupled receptor 55 (Homo sapiens, UniProt Q9Y2T6); assay: SAR analysis of selective Agonists of GPR55 using an Image-Based Assay - Set 2. [Related pubchem assays (depositor defined):AID1961, AID1965]; type: functional
Sequence of G-protein coupled receptor 55 (Q9Y2T6 whole entry): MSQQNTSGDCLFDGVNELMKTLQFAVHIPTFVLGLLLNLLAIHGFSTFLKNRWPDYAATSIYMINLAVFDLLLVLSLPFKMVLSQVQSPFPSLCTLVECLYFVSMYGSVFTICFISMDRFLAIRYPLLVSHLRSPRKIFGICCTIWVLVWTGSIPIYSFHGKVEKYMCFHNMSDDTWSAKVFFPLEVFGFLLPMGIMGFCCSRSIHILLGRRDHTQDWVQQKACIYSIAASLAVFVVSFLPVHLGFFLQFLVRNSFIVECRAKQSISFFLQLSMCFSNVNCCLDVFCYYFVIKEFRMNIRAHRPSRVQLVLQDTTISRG

Cannabinoid receptor 1 [12] = biological target: T5, Cannabinoid receptor 1 (Homo sapiens, UniProt P21554); assay: SAR analysis of antagonists of the Cannabinoid Receptor 1 using an Image-Based Assay - Set 3. [Related pubchem assays (depositor defined):AID1961, AID1965]; type: functional
T5 sequence (P21554 whole entry): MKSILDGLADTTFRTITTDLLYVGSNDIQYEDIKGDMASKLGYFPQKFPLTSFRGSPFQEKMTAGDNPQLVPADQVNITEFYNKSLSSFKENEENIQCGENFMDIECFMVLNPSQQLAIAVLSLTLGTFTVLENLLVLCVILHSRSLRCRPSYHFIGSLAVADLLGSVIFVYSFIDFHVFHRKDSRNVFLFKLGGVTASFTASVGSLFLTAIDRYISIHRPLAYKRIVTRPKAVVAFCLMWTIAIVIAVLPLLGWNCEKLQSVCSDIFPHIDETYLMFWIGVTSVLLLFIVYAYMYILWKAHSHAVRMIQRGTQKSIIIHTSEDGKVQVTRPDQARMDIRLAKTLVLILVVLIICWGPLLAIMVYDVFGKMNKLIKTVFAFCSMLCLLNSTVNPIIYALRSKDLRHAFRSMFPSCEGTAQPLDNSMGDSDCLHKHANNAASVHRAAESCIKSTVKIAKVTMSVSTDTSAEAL

[13] = biological target: T4, G-protein coupled receptor 35; assay: SAR analysis of Agonists of the GPR35 Receptor using an Image-Based Assay - Set 3. [Related pubchem assays (depositor defined):AID1961, AID1965]; type: functional
Cannabinoid receptor 2 [14] = biological target: T3, Cannabinoid receptor 2; assay: SAR analysis of agonists of the Cannabinoid Receptor 2 using an Image-Based Assay - Set 2. [Related pubchem assays (depositor defined):AID1961, AID1965]; type: functional
Cannabinoid receptor 1 [15] = biological target: T5, Cannabinoid receptor 1; assay: SAR analysis of agonists of the Cannabinoid Receptor 1 using an Image-Based Assay - Set 3. [Related pubchem assays (depositor defined):AID1961, AID1965]; type: functional
Vibrio harveyi [16] = assay: Quorum Sensing, LuxS, LuxPQ Measured in Microorganism System Using Plate Reader - 2035-01_Inhibitor_DoseNoFile_DryPowder_Activity. [Related pubchem assays (depositor defined):AID2106]; type: functional, organism-based
Vibrio harveyi [17] = assay: LuxS/LuxPQ-dependent luminescence inhibition, V. harveyi – dry powder, set 2, dose response (AID 493072); type: functional, organism-based
[18] = biological target: T6, Replicative DNA helicase DnaB (Mycobacterium tuberculosis, UniProt P9WMR3); assay: DnaB intein splicing inhibitors, dose response, biochemical, cell-free fluorescence (AID 449749); type: functional
T6 sequence (P9WMR3 whole entry): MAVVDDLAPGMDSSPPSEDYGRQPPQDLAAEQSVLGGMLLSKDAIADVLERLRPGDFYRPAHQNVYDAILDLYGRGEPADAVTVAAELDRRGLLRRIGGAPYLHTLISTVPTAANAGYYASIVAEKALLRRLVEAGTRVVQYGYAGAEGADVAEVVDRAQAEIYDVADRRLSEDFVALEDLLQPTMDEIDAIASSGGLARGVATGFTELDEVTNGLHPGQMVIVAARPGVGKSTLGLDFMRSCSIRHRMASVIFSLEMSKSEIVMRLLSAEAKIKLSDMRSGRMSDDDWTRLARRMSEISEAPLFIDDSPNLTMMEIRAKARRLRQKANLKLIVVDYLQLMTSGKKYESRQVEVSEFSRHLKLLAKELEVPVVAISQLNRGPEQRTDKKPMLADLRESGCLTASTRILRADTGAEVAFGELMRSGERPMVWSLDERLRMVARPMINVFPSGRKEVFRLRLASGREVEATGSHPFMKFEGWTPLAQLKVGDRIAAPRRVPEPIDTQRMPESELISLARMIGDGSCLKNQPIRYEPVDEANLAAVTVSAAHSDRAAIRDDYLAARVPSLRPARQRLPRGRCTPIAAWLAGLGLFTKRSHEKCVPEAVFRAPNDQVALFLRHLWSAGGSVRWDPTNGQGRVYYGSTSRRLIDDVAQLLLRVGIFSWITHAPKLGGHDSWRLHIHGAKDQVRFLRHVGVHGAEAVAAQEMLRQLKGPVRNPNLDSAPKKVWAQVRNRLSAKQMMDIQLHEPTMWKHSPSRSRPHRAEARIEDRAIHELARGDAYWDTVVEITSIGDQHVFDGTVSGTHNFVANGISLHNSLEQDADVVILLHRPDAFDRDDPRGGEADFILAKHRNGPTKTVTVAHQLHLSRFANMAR

Protein RecA = biological target: T7, Protein RecA (Mycobacterium tuberculosis, UniProt P9WHJ3); assay: Fluorescence Cell-Free Homogeneous Dose Retest to Identify Inhibitors of RecA-Intein Splicing Activity. [Related pubchem assays (depositor defined):AID2097, AID2223, AID489010, AID492950]; type: functional
T7 sequence (P9WHJ3 whole entry): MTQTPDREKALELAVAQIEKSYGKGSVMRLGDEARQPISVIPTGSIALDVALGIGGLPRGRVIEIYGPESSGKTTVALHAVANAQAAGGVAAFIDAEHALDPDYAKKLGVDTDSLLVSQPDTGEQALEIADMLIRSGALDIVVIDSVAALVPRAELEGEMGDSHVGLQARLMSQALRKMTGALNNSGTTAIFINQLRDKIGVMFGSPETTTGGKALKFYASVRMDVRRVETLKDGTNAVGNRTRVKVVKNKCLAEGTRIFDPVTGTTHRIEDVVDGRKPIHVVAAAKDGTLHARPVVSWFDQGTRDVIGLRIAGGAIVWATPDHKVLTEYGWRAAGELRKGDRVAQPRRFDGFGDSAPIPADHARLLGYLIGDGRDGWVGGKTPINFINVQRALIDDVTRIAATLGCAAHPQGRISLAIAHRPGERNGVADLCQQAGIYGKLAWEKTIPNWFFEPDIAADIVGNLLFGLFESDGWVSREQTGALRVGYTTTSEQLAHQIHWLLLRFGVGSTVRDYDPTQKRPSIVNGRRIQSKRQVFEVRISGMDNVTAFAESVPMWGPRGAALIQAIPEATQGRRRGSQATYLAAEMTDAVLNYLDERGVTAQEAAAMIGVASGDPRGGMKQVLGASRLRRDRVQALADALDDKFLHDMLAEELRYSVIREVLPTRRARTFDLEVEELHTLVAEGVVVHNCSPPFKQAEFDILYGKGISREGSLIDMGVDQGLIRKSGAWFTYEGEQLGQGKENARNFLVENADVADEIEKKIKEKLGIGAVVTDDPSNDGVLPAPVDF

Leucine aminopeptidase = biological target: T8, Leucine aminopeptidase (Plasmodium falciparum 3D7, UniProt Q8IL11); assay: P. falciparum M17LAP inhibitors, primary screen, biochemical, fluorogenic H-Leu-NHMec substrate, 1536-well (AID 1619); type: functional
T8 sequence (Q8IL11 whole entry): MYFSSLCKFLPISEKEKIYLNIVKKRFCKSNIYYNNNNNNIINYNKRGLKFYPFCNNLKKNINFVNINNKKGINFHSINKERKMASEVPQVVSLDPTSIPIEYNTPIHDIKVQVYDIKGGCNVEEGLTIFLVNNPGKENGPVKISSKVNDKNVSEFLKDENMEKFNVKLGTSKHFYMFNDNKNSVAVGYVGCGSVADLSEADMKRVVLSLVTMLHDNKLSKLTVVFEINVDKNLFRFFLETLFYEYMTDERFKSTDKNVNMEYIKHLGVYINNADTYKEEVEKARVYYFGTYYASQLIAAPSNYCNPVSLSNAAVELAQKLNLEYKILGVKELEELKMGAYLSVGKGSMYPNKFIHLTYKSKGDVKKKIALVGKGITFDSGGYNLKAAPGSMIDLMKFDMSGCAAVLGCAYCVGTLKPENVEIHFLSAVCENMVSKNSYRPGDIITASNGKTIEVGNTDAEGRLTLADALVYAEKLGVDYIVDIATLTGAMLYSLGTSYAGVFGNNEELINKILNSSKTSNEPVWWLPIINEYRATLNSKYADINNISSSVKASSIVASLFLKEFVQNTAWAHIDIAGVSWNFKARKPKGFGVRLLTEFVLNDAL

[19] = Intein inhibitors as potential Tuberculosis drugs, a cytotoxicity screen. [Related pubchem assays (depositor defined):AID2221, AID2223, AID434968, AID435010, AID449749, AID449750, AID489010]; type: functional
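Wherever CC50 is given: cells exposed to compound for 72 hours before luminescence readout.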

Sequence of DNA damage-inducible transcript 3 protein (P35639 whole entry): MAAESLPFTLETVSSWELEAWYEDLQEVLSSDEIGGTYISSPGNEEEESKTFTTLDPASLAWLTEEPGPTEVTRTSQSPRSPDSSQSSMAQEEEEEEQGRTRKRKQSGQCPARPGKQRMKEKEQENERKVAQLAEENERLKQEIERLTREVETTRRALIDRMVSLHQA

O=C(Cc1csc(Nc2nc(S)nc3ccccc23)n1)NCCCN1CCN(c2ccccc2F)CC1
Absolute IC50 (CHOP) [1]: 10 µM

CCCCNc1c(-c2cccc(-c3ccc(OC)cc3)c2)nc2ccc(C)cn12
EC50 (Streptokinase A): 7.94 µM (active) | AC50 [2]: 28.4 µM (active) | EC50 (Streptococcus): 13.3 µM (active) | AC50 [3]: 28.7 µM (active) | AC50 [4]: 10.7 µM (active) | EC50 [5]: > 100 µM (inactive) | AC50 [6]: 29.6 µM (active) | EC50 [7]: 4.54 µM (active) | AC50 [8]: 11 µM (active) | AC50 (INS1): 7.86 µM (active)

CN(Cc1ccccc1)C(=O)c1ccc(NC(=O)Cc2cccc(NC(=O)C3CCCN(C(=O)C4CCC4)C3)c2)cc1 (stereo not given)
EC50 (T-cell): 5.41 µM (active)

COc1ccc(-c2csc(NC(=O)CSc3nnc4c(C)cc5cc6c(cc5n34)OCCO6)n2)cc1
IC50 (Cannabinoid receptor 2 [9]): > 32 µM (inactive) | IC50 [10]: > 32 µM (inactive) | EC50 [11]: > 32 µM (inactive) | IC50 (Cannabinoid receptor 1 [12]): > 32 µM (inactive) | EC50 [13]: > 32 µM (inactive) | EC50 (Cannabinoid receptor 2 [14]): > 32 µM (inactive) | EC50 (Cannabinoid receptor 1 [15]): > 32 µM (inactive)

O=C1C=C/C(=C/Br)O1
AC50 (Vibrio harveyi [16]): 4.81 µM (active) | AC50 (Vibrio harveyi [17]): 3.1 µM (active)

N#CC1=C(N)Oc2[nH]nc(-c3ccccc3)c2C1c1ccsc1 (stereo not given)
AC50 [18]: 0.142 µM (active) | EC50 (Protein RecA): 0.731 µM (active) | IC50 (Leucine aminopeptidase): 64.5 µM (active) | CC50 [19]: > 40 µM (active)
